The source of these data is US20090215778A1, “Alpha-substituted Arylmethyl Piperazine Pyrazolo [1,5-alpha]Pyrimidine Amide Derivatives” (priority 2007, published 2009).

Test [1] addresses T1, HIV Env six-helix bundle (6HB) structure (Human immunodeficiency virus type 1 group M subtype B, UniProt P04579).
T1 construct: H9 cells chronically infected with HIV-1 (H9/HIV-1RF); endogenous in cells; host or cells: H9 cells chronically infected with HIV-1 strain RF (Env is made from the virus in the infected cells, not by transfection)
Description: Six-helix bundle (6HB) assay. The test is classed as cell-based, HIV-1 (strain RF). The procedure, abridged:
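Flow cytometry measured binding of a six-helix-bundle-specific polyclonal antibody, detected with PE-labelled secondary at 4 °C for 45 min, on H9/HIV-1 RF chronically infected cells. Compound was given 30 min at 37 °C before 1 μg/mL soluble CD4 induction for 1 h. Inhibition appears as reduced fluorescence.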

For test [2], the system named is HIV-1, NL4-3 strain. The experiment in a line: Virus infection assay (virus entry and single-cycle infection). In kind it is cell-based. The note with it: Human immunodeficiency virus 1, NL43, TZM-b1, read-out: Nl4. The procedure, abridged:
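Single-cycle entry/infection read-out: β-galactosidase chemiluminescence measured one day after infection. Compounds were present during a 4 h, 37 °C exposure of TZM-b1 reporter cells to NL4-3 virus at MOI 0.01 plus DEAE-dextran (80 μg/mL final), followed by addition of complete medium.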

Molecules are shown by their SMILES.

T1 sequence (P04579 32-519): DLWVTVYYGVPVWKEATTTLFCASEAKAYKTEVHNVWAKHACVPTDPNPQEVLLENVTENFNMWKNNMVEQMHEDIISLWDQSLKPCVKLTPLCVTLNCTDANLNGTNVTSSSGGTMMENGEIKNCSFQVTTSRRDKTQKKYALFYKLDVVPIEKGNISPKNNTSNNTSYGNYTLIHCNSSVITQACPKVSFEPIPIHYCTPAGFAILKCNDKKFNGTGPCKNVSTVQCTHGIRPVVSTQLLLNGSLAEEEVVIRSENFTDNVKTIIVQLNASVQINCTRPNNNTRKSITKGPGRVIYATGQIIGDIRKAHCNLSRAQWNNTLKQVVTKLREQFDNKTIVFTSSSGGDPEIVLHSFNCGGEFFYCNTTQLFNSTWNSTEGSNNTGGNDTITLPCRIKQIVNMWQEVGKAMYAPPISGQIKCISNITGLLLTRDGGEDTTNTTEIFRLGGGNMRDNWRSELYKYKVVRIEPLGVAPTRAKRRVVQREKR
T1 sequence (P04579 520-865): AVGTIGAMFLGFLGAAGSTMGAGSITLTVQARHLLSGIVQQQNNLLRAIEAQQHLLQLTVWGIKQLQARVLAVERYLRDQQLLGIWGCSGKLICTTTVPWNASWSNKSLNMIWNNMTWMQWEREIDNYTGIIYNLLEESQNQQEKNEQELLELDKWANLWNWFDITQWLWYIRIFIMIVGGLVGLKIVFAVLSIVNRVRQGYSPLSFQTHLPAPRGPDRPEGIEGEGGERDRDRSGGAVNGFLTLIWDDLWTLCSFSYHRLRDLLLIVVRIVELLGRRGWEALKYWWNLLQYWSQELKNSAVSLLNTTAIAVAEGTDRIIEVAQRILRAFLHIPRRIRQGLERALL

Take `COc1ccc(-c2nc3c(C(=O)N4CCN([C@@H](C)c5cccs5)C[C@H]4C)cnn3c(C(F)(F)F)c2C)cc1` [methanone, [5-(4-methoxyphenyl)-6-methyl-7-(trifluoromethyl)pyrazolo[1,5-α]pyrimidin-3-yl][(2R)-2-methyl-4-[(1S)-1-(2-thienyl)ethyl]-1-piperazinyl]-]: the IC50 in test [1] and in test [2] was less than 1 µM throughout.

For `COc1ccc(-c2nc3c(C(=O)N4CCN([C@@H](CO)c5cccc(OC)c5F)C[C@H]4C)cnn3c(C(F)(F)F)c2C)cc1` [methanone, [(2R)-4-[(1R)-1-(2-fluoro-3-methoxyphenyl)-2-hydroxyethyl]-2-methyl-1-piperazinyl][5-(4-methoxyphenyl)-6-methyl-7-(trifluoromethyl)pyrazolo[1,5-α]pyrimidin-3-yl]-], the IC50 in test [1] and in test [2] was less than 1 µM in each case.

As to `COc1ccc(-c2nc3c(C(=O)N4CCN(C(CO)c5cccnc5OC)C[C@H]4C)cnn3c(C(F)(F)F)c2C)cc1` (stereo partly drawn) [methanone, [(2R)-4-[2-hydroxy-1-(2-methoxy-3-pyridinyl)ethyl]-2-methyl-1-piperazinyl][5-(4-methoxyphenyl)-6-methyl-7-(trifluoromethyl)pyrazolo[1,5-α]pyrimidin-3-yl]-], the IC50 in test [1] and in test [2] was less than 1 µM in each case.

`COc1ccc(-c2nc3c(C(=O)N4CCN(C(CO)c5ccccc5F)C[C@H]4C)cnn3c(C(F)(F)F)c2C)cn1` (stereo partly drawn) [methanone, [(2R)-4-[1-(2-fluorophenyl)-2-hydroxyethyl]-2-methyl-1-piperazinyl][5-(6-methoxy-3-pyridinyl)-6-methyl-7-(trifluoromethyl)pyrazolo[1,5-α]pyrimidin-3-yl]-]: the IC50 in test [1] and in test [2] was less than 1 µM each time.

As for `COc1ccc(-c2nc3c(C(=O)N4CCN([C@H](CO)c5c(C)noc5C)C[C@H]4C)cnn3c(C(F)(F)F)c2C)cc1` [methanone, [(2R)-4-[(1S)-1-(3,5-dimethyl-4-isoxazolyl)-2-hydroxyethyl]-2-methyl-1-piperazinyl][5-(4-methoxyphenyl)-6-methyl-7-(trifluoromethyl)pyrazolo[1,5-α]pyrimidin-3-yl]-], the IC50 in test [1] and in test [2] was 1.1 to 10 µM in each case.

As to `COc1ccc(-c2nc3c(C(=O)N4CCN([C@@H](C)c5cccc(C#N)c5)C[C@H]4C)cnn3c(C(F)(F)F)c2C)cc1`, the IC50 in test [1] and in test [2] was less than 1 µM each time.

On to `COc1ccc(-c2nc3c(C(=O)N4CCN([C@@H](C)c5ccccc5C#N)C[C@H]4C)cnn3c(C(F)(F)F)c2C)cc1` [benzonitrile, 2-[(1S)-1-[(3R)-4-[[5-(4-methoxyphenyl)-6-methyl-7-(trifluoromethyl)pyrazolo[1,5-α]pyrimidin-3-yl]carbonyl]-3-methyl-1-piperazinyl]ethyl]-], for which the IC50 in test [1] and in test [2] was less than 1 µM throughout.

For `COc1ccc(-c2nc3c(C(=O)N4CCN(C(CO)c5cccc(OC)c5)C[C@H]4C)cnn3c(C(F)(F)F)c2C)cc1` (stereo partly drawn) [methanone, [(2R)-4-[2-hydroxy-1-(3-methoxyphenyl)ethyl]-2-methyl-1-piperazinyl][5-(4-methoxyphenyl)-6-methyl-7-(trifluoromethyl)pyrazolo[1,5-α]pyrimidin-3-yl]-], the IC50 in test [1] and in test [2] was less than 1 µM in each case.

Regarding `COc1ccc(-c2nc3c(C(=O)N4CCN([C@H](CO)c5cccc(OC)c5F)C[C@H]4C)cnn3c(C(F)(F)F)c2C)cc1` [methanone, [(2R)-4-[(1S)-1-(2-fluoro-3-methoxyphenyl)-2-hydroxyethyl]-2-methyl-1-piperazinyl][5-(4-methoxyphenyl)-6-methyl-7-(trifluoromethyl)pyrazolo[1,5-α]pyrimidin-3-yl]-], the IC50 in test [1] and in test [2] was less than 1 µM each time.

As to `COc1ccc(-c2nc3c(C(=O)N4CCN(C(CO)c5cccc(N6CCCC6)c5)C[C@H]4C)cnn3c(C(F)(F)F)c2C)cc1` (stereo partly drawn) [methanone, [(2R)-4-[2-hydroxy-1-[3-(1-pyrrolidinyl)phenyl]ethyl]-2-methyl-1-piperazinyl][5-(4-methoxyphenyl)-6-methyl-7-(trifluoromethyl)pyrazolo[1,5-α]pyrimidin-3-yl]-], the IC50 in test [1] and in test [2] was less than 1 µM each time.

On to `COc1ccc(-c2nc3c(C(=O)N4CCN([C@@H](C)c5cccc(NS(C)(=O)=O)c5)C[C@H]4C)cnn3c(C(F)(F)F)c2C)cc1` [methanesulfonamide, N-[3-[(1S)-1-[(3R)-4-[[5-(4-methoxyphenyl)-6-methyl-7-(trifluoromethyl)pyrazolo[1,5-α]pyrimidin-3-yl]carbonyl]-3-methyl-1-piperazinyl]ethyl]phenyl]-], for which the IC50 in test [1] and in test [2] was less than 1 µM in each case.

Regarding `COc1ccc(-c2nc3c(C(=O)N4CCN(C(CO)c5cc6ccccc6o5)C[C@H]4C)cnn3c(C(F)(F)F)c2C)cc1` (stereo partly drawn) [methanone, [(2R)-4-[1-(2-benzofuranyl)-2-hydroxyethyl]-2-methyl-1-piperazinyl][5-(4-methoxyphenyl)-6-methyl-7-(trifluoromethyl)pyrazolo[1,5-α]pyrimidin-3-yl]-], the IC50 in test [1] and in test [2] was less than 1 µM throughout.

For the molecule `COc1ccc(-c2nc3c(C(=O)N4CCN([C@@H](CO)c5cscc5C)C[C@H]4C)cnn3c(C(F)(F)F)c2C)cc1` [methanone, [(2R)-4-[(1R)-2-hydroxy-1-(4-methyl-3-thienyl)ethyl]-2-methyl-1-piperazinyl][5-(4-methoxyphenyl)-6-methyl-7-(trifluoromethyl)pyrazolo[1,5-α]pyrimidin-3-yl]-], the IC50 in test [1] and in test [2] was less than 1 µM throughout.

On to `COc1ccc(-c2nc3c(C(=O)N4CCN(C(CO)c5ccccc5C#N)C[C@H]4C)cnn3c(C(F)(F)F)c2C)cc1` (stereo partly drawn) [benzonitrile, 2-[2-hydroxy-1-[(3R)-4-[[5-(4-methoxyphenyl)-6-methyl-7-(trifluoromethyl)pyrazolo[1,5-α]pyrimidin-3-yl]carbonyl]-3-methyl-1-piperazinyl]ethyl]-], for which the IC50 in test [1] and in test [2] was less than 1 µM in each case.

As for `COc1ccc(-c2nc3c(C(=O)N4CCN(C(c5ccccc5)C(C)(C)O)C[C@H]4C)cnn3c(C(F)(F)F)c2C)cc1` (stereo partly drawn) [methanone, [(2R)-4-(2-hydroxy-2-methyl-1-phenylpropyl)-2-methyl-1-piperazinyl][5-(4-methoxyphenyl)-6-methyl-7-(trifluoromethyl)pyrazolo[1,5-α]pyrimidin-3-yl]-], the IC50 in test [1] and in test [2] was less than 1 µM throughout.

For `COc1ccc(-c2nc3c(C(=O)N4CCN(C(CO)c5c(F)cccc5F)C[C@H]4C)cnn3c(C(F)(F)F)c2C)cc1` (stereo partly drawn) [methanone, [(2R)-4-[1-(2,6-difluorophenyl)-2-hydroxyethyl]-2-methyl-1-piperazinyl][5-(4-methoxyphenyl)-6-methyl-7-(trifluoromethyl)pyrazolo[1,5-α]pyrimidin-3-yl]-], the IC50 in test [1] and in test [2] was less than 1 µM throughout.

Regarding `COc1ccc(-c2nc3c(C(=O)N4CCN(C(CO)c5ccc(C(=O)N(C)C)s5)C[C@H]4C)cnn3c(C(F)(F)F)c2C)cc1` (stereo partly drawn) [2-thiophenecarboxamide, 5-[2-hydroxy-1-[(3R)-4-[[5-(4-methoxyphenyl)-6-methyl-7-(trifluoromethyl)pyrazolo[1,5-α]pyrimidin-3-yl]carbonyl]-3-methyl-1-piperazinyl]ethyl]-N,N-dimethyl-], the IC50 in test [1] and in test [2] was more than 10.1 µM each time.

With `COc1ccc(-c2nc3c(C(=O)N4CCN(C(CO)c5cccc(S(N)(=O)=O)c5)C[C@H]4C)cnn3c(C(F)(F)F)c2C)cc1` (stereo partly drawn) [benzenesulfonamide, 3-[2-hydroxy-1-[(3R)-4-[[5-(4-methoxyphenyl)-6-methyl-7-(trifluoromethyl)pyrazolo[1,5-α]pyrimidin-3-yl]carbonyl]-3-methyl-1-piperazinyl]ethyl]-], the IC50 in test [1] and in test [2] was more than 10.1 µM in each case.

In the case of `COc1ccc(-c2nc3c(C(=O)N4CCN(C(C(N)=O)c5ccccc5)C[C@H]4C)cnn3c(C(F)(F)F)c2C)cc1` (stereo partly drawn) [1-piperazineacetamide, 4-[[5-(4-methoxyphenyl)-6-methyl-7-(trifluoromethyl)pyrazolo[1,5-α]pyrimidin-3-yl]carbonyl]-3-methyl-α-phenyl-, (3R)-], the IC50 in test [1] and in test [2] was less than 1 µM each time.

In the case of `COc1ccc(-c2nc3c(C(=O)N4CCN(C(CO)c5cccc(OC)c5OC)C[C@H]4C)cnn3c(C(F)(F)F)c2C)cc1` (stereo partly drawn) [methanone, [(2R)-4-[1-(2,3-dimethoxyphenyl)-2-hydroxyethyl]-2-methyl-1-piperazinyl][5-(4-methoxyphenyl)-6-methyl-7-(trifluoromethyl)pyrazolo[1,5-α]pyrimidin-3-yl]-], the IC50 in test [1] and in test [2] was less than 1 µM each time.

As for `COc1ccc(-c2nc3c(C(=O)N4CCN(C(CO)c5ccccc5F)C[C@H]4C)cnn3c(C(F)(F)F)c2C)cc1` (stereo partly drawn) [methanone, [(2R)-4-[1-(2-fluorophenyl)-2-hydroxyethyl]-2-methyl-1-piperazinyl][5-(4-methoxyphenyl)-6-methyl-7-(trifluoromethyl)pyrazolo[1,5-α]pyrimidin-3-yl]-], the IC50 in test [1] and in test [2] was less than 1 µM in each case.

`CNC(=O)C(c1ccccc1)N1CCN(C(=O)c2cnn3c(C(F)(F)F)c(C)c(-c4ccc(OC)cc4)nc23)[C@H](C)C1` (stereo partly drawn) [1-piperazineacetamide, 4-[[5-(4-methoxyphenyl)-6-methyl-7-(trifluoromethyl)pyrazolo[1,5-α]pyrimidin-3-yl]carbonyl]-N,3-dimethyl-α-phenyl-, (3R)-]: the IC50 in test [1] and in test [2] was less than 1 µM each time.
